Results on 22 compounds are retold here after patent publication US20230203041A1, “ANTAGONISTS OF THE ADENOSINE A2A RECEPTOR” (AdoRx Therapeutics Limited, priority 2020, published 2023).

Test [1] addresses T1, human Adenosine A2b receptor (Homo sapiens, UniProt P29275).
T1 construct: expressed in transfected cells; host or cells: CHO cell membranes
T1 sequence (P29275 1-332): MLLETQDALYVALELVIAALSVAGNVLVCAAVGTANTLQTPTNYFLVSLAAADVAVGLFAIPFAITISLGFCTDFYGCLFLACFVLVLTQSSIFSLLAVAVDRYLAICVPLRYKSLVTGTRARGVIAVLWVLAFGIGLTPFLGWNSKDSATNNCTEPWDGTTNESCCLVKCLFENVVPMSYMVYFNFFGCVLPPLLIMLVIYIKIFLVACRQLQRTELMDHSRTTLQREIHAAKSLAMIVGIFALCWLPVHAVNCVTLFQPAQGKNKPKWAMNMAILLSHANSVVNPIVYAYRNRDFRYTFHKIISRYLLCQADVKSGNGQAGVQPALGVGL
In words: Adenosine receptor TR-FRET binding assay (CA200645 displacement), A2b. The note with it: 30 nM CA200645, CHO cell membranes, 2 hours at room temperature. In general terms: TR-FRET usually uses a lanthanide donor and a delayed reading to cut background.

Test [2] concerns the target T2, human Adenosine A1 receptor (Homo sapiens, UniProt P30542).
T2 sequence (P30542 1-326): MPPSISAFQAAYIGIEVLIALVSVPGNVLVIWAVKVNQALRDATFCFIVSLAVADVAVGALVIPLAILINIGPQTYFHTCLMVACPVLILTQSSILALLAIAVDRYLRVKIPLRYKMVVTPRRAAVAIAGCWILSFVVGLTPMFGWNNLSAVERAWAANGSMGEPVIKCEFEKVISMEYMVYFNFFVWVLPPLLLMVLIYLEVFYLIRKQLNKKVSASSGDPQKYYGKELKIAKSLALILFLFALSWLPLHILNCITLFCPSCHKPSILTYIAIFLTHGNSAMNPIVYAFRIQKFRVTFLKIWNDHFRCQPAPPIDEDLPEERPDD
The test is described as follows: Adenosine receptor TR-FRET binding assay (CA200645 displacement), A1.
Description: (§1) All FRET binding experiments were conducted at room temperature in white 384-well plates, in assay binding buffer containing 1×LabMed (Cisbio, France), 100 μg/mL saponin, 1% DMSO and 0.02% pluronic acid. Binding of the fluorescently labelled Adenosine receptor antagonist XAC (CA200645, FRET acceptor) to terbium-labelled A1, A2a, A2b and A3 adenosine receptors (FRET donors) was detected by time-resolved FRET due to the close proximity of the donor and acceptor in a binding event. To investigate the ability of unlabelled test compounds to bind to Adenosine A1, A2a, A2b and A3 receptors, dose response curves were constructed that determined the ability of a range of concentrations to inhibit the binding of 30 nM CA200645 to the A2b receptor and 100 nM CA200645 to the A1, A2a, and A3 receptor.
(§2) Serial dilution (1:3 dilutions) of test compounds in neat DMSO and transfer of a 400 nL sample of test compound into the assay plate was carried out using the Mosquito (TTP Labtech, UK). The compound samples were incubated for 2 hours at room temperature with a fixed concentration of CA200645 defined for each receptor (see above) and CHO cell membranes containing the human Adenosine A1 (0.5 μg/well), A2a (0.3 μg/well), A2b (1 μg/well) or A3 (1 μg/well) receptor in 40 μL of assay buffer. Total and non-specific binding of CA200645 was determined in the absence and presence of 10 μM XAC, respectively. Following 2 hours incubation, the level of CA200645 binding was detected on a Pherastar FSX (BMG Labtech, Germany) using standard TR-FRET settings. The terbium donor was excited with three laser flashes at a wavelength of 337 nm, and donor and acceptor emission was detected at 620 nm and 665 nm wavelengths, respectively. FRET ratios were obtained by multiplying the acceptor/donor ratio value by 10,000. Specific binding was determined by subtracting the non-specific binding FRET ratio from the total binding FRET ratio. Compound IC50 curves were analysed using GraphPad Prism 7.0 (GraphPad, USA) and Ki affinity values were determined from the obtained IC50 values using the method of Cheng and Prusoff.

Test [3] concerns the target T3, human Adenosine A3 receptor (Homo sapiens, UniProt P0DMS8).
T3 sequence (P0DMS8 1-318): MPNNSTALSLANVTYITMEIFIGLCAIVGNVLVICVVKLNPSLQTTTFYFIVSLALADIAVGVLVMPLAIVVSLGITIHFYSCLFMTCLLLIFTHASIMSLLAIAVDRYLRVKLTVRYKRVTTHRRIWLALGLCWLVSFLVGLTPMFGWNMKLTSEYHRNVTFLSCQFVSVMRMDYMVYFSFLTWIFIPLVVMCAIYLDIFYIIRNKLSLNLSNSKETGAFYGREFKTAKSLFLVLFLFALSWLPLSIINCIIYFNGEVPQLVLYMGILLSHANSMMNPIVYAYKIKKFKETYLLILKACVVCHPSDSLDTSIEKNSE
In words: Adenosine receptor TR-FRET binding assay (CA200645 displacement), A3.

In test [4] the target is T4, human Adenosine A2a receptor (Homo sapiens, UniProt P29274).
T4 construct: expressed in transfected cells; host or cells: CHO cell membranes
T4 sequence (P29274 whole entry): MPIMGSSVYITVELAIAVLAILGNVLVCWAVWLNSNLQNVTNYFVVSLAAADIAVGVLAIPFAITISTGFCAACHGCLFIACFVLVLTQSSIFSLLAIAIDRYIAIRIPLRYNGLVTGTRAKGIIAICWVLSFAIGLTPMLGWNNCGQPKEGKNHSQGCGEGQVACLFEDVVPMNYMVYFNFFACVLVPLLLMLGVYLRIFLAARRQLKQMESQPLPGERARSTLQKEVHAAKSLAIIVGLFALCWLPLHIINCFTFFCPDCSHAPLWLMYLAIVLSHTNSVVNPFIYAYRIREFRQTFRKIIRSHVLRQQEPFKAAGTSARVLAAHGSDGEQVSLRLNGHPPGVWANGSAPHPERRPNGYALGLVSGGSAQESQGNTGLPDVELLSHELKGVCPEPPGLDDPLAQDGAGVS
In words: Adenosine receptor TR-FRET binding assay (CA200645 displacement), A2a. The note with it: 100 nM CA200645, CHO cell membranes, 2 hours at room temperature.
Description: as §1, §2

Structures can show the parent of a compound that is named as a salt. Where only a bound is given, the exact number is not on record here.

Regarding `Cc1cc(-c2c(-c3cccc(C#N)c3)nn3ccc(N)nc23)cc2ncnn12` [Example 27.5, 3-[5-Amino-3-(5-methyl-[1,2,4]triazolo[1,5-a]pyridin-7-yl)pyrazolo[1,5-a]pyrimidin-2-yl]benzonitrile], the Ki in test [1] is 108 nM; in test [2], 46 nM; in test [3], > 1000 nM; in test [4], 360 nM.
Consider `Cc1cc(-c2c(-c3cccc(C#N)c3)nn3ccc(N)nc23)cc(C(=O)O)n1` [Example 28, 4-[5-Amino-2-(3-cyanophenyl)pyrazolo[1,5-a]pyrimidin-3-yl]-6-methyl-pyridine-2-carboxylic acid], for which the Ki was 2460 nM in test [1], 1120 nM in test [2], > 1000 nM in test [3] and 359 nM in test [4].
As to `Cc1cc(-c2c(-c3cccc(C#N)c3)nn3ccc(N)nc23)cc(N(C)C)n1` [Example 29, 3-[5-Amino-3-[2-(dimethylamino)-6-methyl-4-pyridyl]pyrazolo[1,5-a]pyrimidin-2-yl]benzonitrile], the Ki in test [1] is 56 nM; in test [2], 144 nM; in test [3], > 1000 nM; in test [4], 15.2 nM.
Turning to `Cc1cc(-c2c(-c3cccc(C#N)c3)nn3ccc(NC(=O)NCC(C)(C)O)nc23)cc(Cl)n1` [Example 30.1, 1-[3-(2-Chloro-6-methyl-4-pyridyl)-2-(3-cyanophenyl)pyrazolo[1,5-a]pyrimidin-5-yl]-3-(2-hydroxy-2-methyl-propyl)urea], the Ki in test [1] is 5 nM; in test [2] it was 26 nM; in test [3] it was > 1000 nM; in test [4], 1.3 nM.
For the compound `CCN1CCC(NC(=O)Nc2ccn3nc(-c4cccc(C#N)c4)c(-c4cc(C)nc(Cl)c4)c3n2)CC1` [Example 30.2, 1-[3-(2-Chloro-6-methyl-4-pyridyl)-2-(3-cyanophenyl)pyrazolo[1,5-a]pyrimidin-5-yl]-3-(1-ethyl-4-piperidyl)urea], the Ki is 49 nM in test [1], 130 nM in test [2], > 1000 nM in test [3] and 31.5 nM in test [4].
For `Cc1cc(-c2c(-c3cccc(C#N)c3)nn3ccc(NC(=O)N4CC5(COC5)C4)nc23)cc(C)n1` [Example 30.4, N-[2-(3-Cyanophenyl)-3-(2,6-dimethyl-4-pyridyl)pyrazolo[1,5-a]pyrimidin-5-yl]-2-oxa-6-azaspiro[3.3]heptane-6-carboxamide], in that order: 73 nM, 103 nM, > 1000 nM and 7.8 nM.
Regarding `Cc1cc(-c2c(-c3cccc(C#N)c3)nn3ccc(NC(=O)N4CCC(C)(C#N)CC4)nc23)cc(C)n1` [Example 30.5, 4-Cyano-N-[2-(3-cyanophenyl)-3-(2,6-dimethyl-4-pyridyl)pyrazolo[1,5-a]pyrimidin-5-yl]-4-methyl-piperidine-1-carboxamide], the Ki in test [1] was 28 nM; in test [2], 262 nM; in test [3], > 1000 nM; in test [4], 8.4 nM.
With `Cc1cc(-c2c(-c3cccc(C#N)c3)nn3ccc(NC(=O)N4CCNCC4)nc23)cc(Cl)n1` [Example 31, N-[3-(2-Chloro-6-methyl-4-pyridyl)-2-(3-cyanophenyl)pyrazolo[1,5-a]pyrimidin-5-yl]piperazine-1-carboxamide], the Ki was 2 nM in test [1], 96 nM in test [2], > 1000 nM in test [3] and 10.4 nM in test [4].
Take `Cc1cc(-c2c(-c3cccc(C#N)c3)nn3ccc(NC(=O)N[C@H]4CCNC4)nc23)cc(Cl)n1` [Example 31.1, 1-[3-(2-Chloro-6-methyl-4-pyridyl)-2-(3-cyanophenyl)pyrazolo[1,5-a]pyrimidin-5-yl]-3-[(3S)-pyrrolidin-3-yl]urea trifluoroacetate]: the inhibition constant Ki in test [1] was 15 nM; in test [2] it was 200 nM; in test [3] it was > 1000 nM; in test [4], 10.8 nM.
With `Cc1cc(-c2c(-c3cccc(C#N)c3)nn3ccc(NC(=O)NCCN)nc23)cc(Cl)n1` [Example 31.2, 1-(2-Aminoethyl)-3-[3-(2-chloro-6-methyl-4-pyridyl)-2-(3-cyanophenyl)pyrazolo[1,5-a]pyrimidin-5-yl]urea trifluoroacetate], the Ki in test [1] was 6 nM; in test [2], 238 nM; in test [3] it was > 1000 nM; in test [4], 4.6 nM.
Turning to `Cc1cc(-c2c(-c3cccc(C#N)c3)nn3ccc(NC(=O)N[C@@H]4CCNC4)nc23)cc(Cl)n1` [Example 31.3, 1-[3-(2-Chloro-6-methyl-4-pyridyl)-2-(3-cyanophenyl)pyrazolo[1,5-a]pyrimidin-5-yl]-3-[(3R)-pyrrolidin-3-yl]urea trifluoroacetate], the Ki is 5 nM in test [1], 151 nM in test [2], > 1000 nM in test [3] and 4.6 nM in test [4].
For `Cc1cc(-c2c(-c3cccc(C#N)c3)nn3ccc(NC(=O)NCC(C)(C)N)nc23)cc(Cl)n1` [Example 31.4, 1-(2-Amino-2-methyl-propyl)-3-[3-(2-chloro-6-methyl-4-pyridyl)-2-(3-cyanophenyl)pyrazolo[1,5-a]pyrimidin-5-yl]urea trifluoroacetate], the Ki in test [1] is 13 nM; in test [2], 112 nM; in test [3] it was > 1000 nM; in test [4] it was 9.8 nM.
In the case of `Cc1cc(-c2c(-c3cccc(C#N)c3)nn3ccc(N/C(N)=N\C#N)nc23)cc(Cl)n1` [Example 32, 1-[3-(2-Chloro-6-methyl-4-pyridyl)-2-(3-cyanophenyl)pyrazolo[1,5-a]pyrimidin-5-yl]-2-cyano-guanidine], the inhibition constant (Ki) in test [1] was 53 nM; in test [2] it was 800 nM; in test [3], > 1000 nM; in test [4], 17.4 nM.
Consider `CCn1nccc1-c1c(-c2cccc(C#N)c2)nn2ccc(NCC(C)(C)O)nc12` [Example 33, 3-[3-(2-Ethylpyrazol-3-yl)-5-[(2-hydroxy-2-methyl-propyl)amino]pyrazolo[1,5-a]pyrimidin-2-yl]benzonitrile], for which the inhibition constant (Ki) in test [1] is 28 nM; in test [2] it was 118 nM; in test [3], > 1000 nM; in test [4] it was 13.1 nM.
The like results for `CCn1nccc1-c1c(-c2cccc(C#N)c2)nn2ccc(N3CCN(C)C(CO)C3)nc12` (stereo not shown) [Example 33.1] were, in that order, 62 nM, 184 nM, > 1000 nM and 14.9 nM.
In the case of `CCn1nccc1-c1c(-c2cccc(C#N)c2)nn2ccc(N3CC4CCC(C3)O4)nc12` [Example 33.2], the Ki in test [1] was 159 nM; in test [2], 126 nM; in test [3], > 1000 nM; in test [4] it was 15.2 nM.
With `CCn1nccc1-c1c(-c2cccc(C#N)c2)nn2ccc(N3CC4CCC(C3)N4C)nc12` [Example 33.3], the Ki in test [1] was 710 nM; in test [2], 67 nM; in test [3], > 1000 nM; in test [4], 28.6 nM.
For `CCn1nccc1-c1c(-c2cccc(C#N)c2)nn2ccc(N3CCN(S(C)(=O)=O)CC3)nc12` [Example 33.4], in that order: 120 nM, 254 nM, > 1000 nM and 48.6 nM.
As for `CCn1nccc1-c1c(-c2cccc(C#N)c2)nn2ccc(NCc3nnc[nH]3)nc12` [Example 33.5], the Ki is 17 nM in test [1], 124 nM in test [2], > 1000 nM in test [3] and 91.9 nM in test [4].
The like results for `CCn1nccc1-c1c(-c2cccc(C#N)c2)nn2ccc(N3CCNCC3)nc12` [Example 33.6] were, in that order, 61 nM, 898 nM, > 1000 nM and 134 nM.
For `CCn1nccc1-c1c(-c2cccc(C#N)c2)nn2ccc(N3CCS(=N)(=O)CC3)nc12` [Example 33.7], the Ki was 416 nM in test [1], 1800 nM in test [2], > 1000 nM in test [3] and 440 nM in test [4].
With `CC(C)(C)OC(=O)N1CCC[C@H]1CNc1ccn2nc(-c3ccco3)c(C#N)c2n1` [Example 37.4], the Ki in test [1] came out at 1750 nM; in test [2], 38 nM; in test [3], 771 nM; in test [4] it was 29.8 nM.

In general, Ki refers to a dissociation constant, usually derived from enzyme kinetics or from competition with a known ligand. Read a high Ki as a looser hold on the target.
